A melting point compilation (Tetko et al.; mined from patent text by program, amines drawn as free bases though some values may be those of a salt)

Compound | melting point [°C]
CCCCc1ncc(/C=C(\Cc2cccs2)C(=O)O)n1Cc1cccc(OC)c1 | 170 to 171
COc1ccc(S(=O)(=O)C2(C(=O)NO)CCN(Cc3ccc(Cl)c(Cl)c3)CC2)cc1 | 192 to 195
Cc1nnc(-c2ccnc3[nH]c(CCc4ccccc4)cc23)o1 | 210
CS(=O)(=O)c1ccc2cc(C(=O)O)ccc2c1 | 301 to 304
O=C(CNC(=O)[C@@H]1CCCN1C(=O)O)NCc1ccccc1 | 112 to 115
CCCc1c(C(=O)c2ccc(OS(=O)(=O)c3ccc(C)cc3)cc2)c2ccccn2c1C(C)=O | 125 to 126
c1cnn(Cc2ccc3c(c2)-c2[nH]nc(-c4ccsc4)c2C3)c1 | 245 to 247
O=C1c2ccccc2C=C(Cl)C(Cl)c2ccccc21 (stereo not given) | 123 to 125
CN1Cc2c(C(=O)OC(C)(C)C)ncn2-c2ccccc2C1=S | 207 to 208
CC(=O)c1ccc2c(c1)N(C(=O)OC(C)(C)C)CCC2 | 125 to 127
COc1ccnc(CCC(=O)O)c1 | 131 to 132
COc1cc2c(Nc3ccc(Cl)cc3F)ncnc2cc1OCCS(C)(=O)=O | 227 to 230
Cc1c(C)c2c(c(C)c1O)CC[C@@](C)(CCCl)O2 | 111
CCOC(=O)C(Oc1ccc(Oc2ccc(C#N)cc2)cc1)C(=O)OCC | 42 to 46
C=CC[C@H]1C(=O)N(S(C)(=O)=O)[C@H]2CCN(C(=O)OCc3ccccc3)[C@H]12 (relative stereo) | 92 to 94
CN1CCC(=C2c3ccsc3C(=O)Cn3ccnc32)CC1 | 153
O=C(NCCO)c1cc(C(=O)NCCO)cc([N+](=O)[O-])c1 | 151
C=C(c1cccc(-c2cnnn2COCC)c1F)C(O)(Cn1cncn1)c1ccc(F)cc1F (stereo not given) | 136 to 138
O=CNC1=NN(c2ccccc2)CC1 | 140 to 141
CCCN1C(=O)CC(C)(C)c2cc(C)c(-c3cc(C=C4SC(=O)NC4=O)ccc3N(C)C)cc21 | 258 to 260
O=C(Nc1ccc(C(=O)N2Cc3ccccc3Cc3ccccc32)cc1)c1cc(Cl)cc(Cl)c1 | 257 to 259
COCOc1cc(Cl)ccc1-c1cc(-c2cccc([N+](=O)[O-])c2)c(C#N)c(NC(=O)c2ccco2)n1 | 154 to 155
COc1ccc2c(c1)-c1nn(CCO)c3cccc(c13)N2 | 275 to 276
Nc1ccc(CN2C(=O)[C@H]3CCC[C@H]3Nc3ccccc32)cc1 (relative stereo) | 149 to 150
CCCCCCCCCCCC(O)CC(=O)C(CCCCCC)C(=O)OC (stereo not given) | 38 to 39

Compound | melting point [°C]
CCOC(=O)c1ncc2c(c1COC)c1c(Cc3ccccc3Cl)cccc1n2S(=O)(=O)c1ccc(C)cc1 | 140 to 142
CC1(COCCCCCCOc2ccc(C(=O)O)cc2)COC1 | 58.5
Cc1c(N)cc(C(C)(C)C)c2c1CC(C)(C)O2 | 115 to 116
CCOC(=O)c1c(-c2ccc(F)cc2)nc(-c2ccccc2)nc1C(C)C | 97 to 99
CC(=O)NC1CCCc2sc(C(C)=O)cc21 (stereo not given) | 168 to 172
Cn1cc(-c2cccc([N+](=O)[O-])c2)c(=O)c(-c2cccc(C(F)(F)F)c2)c1 | 209 to 211
COC(=O)c1ccc(OC)c(/C=C/C(=O)N(C(C)C)C(C)C)c1 | 139 to 140
CCCc1nn(C)c(C(N)=O)c1NC(=O)c1ccccc1OCC | 153 to 154
O=C1COCC(c2ccc(F)c(F)c2)N1C(=O)NCCCN1CCC(O)(c2ccccc2)CC1 (stereo not given) | 85 to 88
COc1ccc(C=O)cc1OCc1nc(-c2ccccc2)oc1C | 121 to 122
NC(=O)c1cnn2c1NCC=C2c1cccc(C(F)(F)F)c1 | 157 to 160
NC(=O)c1ncn(Cc2ccccc2)c1NC(=S)NC(=O)c1ccccc1 | 181 to 182
CCCN1C(=O)C(NC(=O)C(N)Cc2ccccc2)N=C(N2CCN(C)CC2)c2ccccc21 (stereo not given) | 152 to 153
FC(F)(F)c1cccc(Oc2ccnc(-n3ccc(C(F)(F)F)n3)n2)c1 | 72 to 73
CNc1nc(-c2ccccc2)c(-c2nc3ccccc3c(=O)n2-c2ccccc2Cl)s1 | 215 to 217
O=C(N[C@@H](CSC(=O)c1ccccc1)C(=O)O)c1ccccc1 | 183 to 185
COc1cc(Nc2nccc(C(=O)c3ccccc3)n2)cc(OC)c1OC | 165
CNc1cc2c(cc1Cl)CCN(C)C[C@@H]2c1ccccc1 | 98 to 100
CCN(CC)C(=O)C1(OC(=S)N(CC)CC)C=CC=NC1F (stereo not given) | 87 to 92
Fc1ccccc1CC[C@H]1CNCCN1 | 94 to 99
O=NCNC1=Nc2ccc([N+](=O)[O-])cc2C(c2ccccc2Cl)=NC1 | 164 to 166
CN(O)C(=O)c1ccc(C=Cc2ccccn2)cc1 | 135 to 138
CCCCN(CCCC)C(=O)CN1CC(c2ccc3c(c2)OCO3)C(C(=O)O)C1c1ccncc1 (stereo not given) | 131 to 132
CS(=O)(=O)c1ccc(C(CC2CCCC2)C(=O)Nc2nccs2)cc1Br (stereo not given) | 106 to 107
CC1(CCl)CC(SCc2c(C(F)(F)F)n[nH]c2Cl)=NO1 (stereo not given) | 105 to 107
